{
  "source": "patent US20160174564A1",
  "about": "“BIOCIDE-FREE PREWETTED SPONGE CLOTH” (Kalle GmbH, priority 2014, published 2016)",
  "origin": "cited, not measured here",
  "data": [
    {"settings": "saturated solutions of different salts; 20° C.", "values": [
      {"molecule": "[Cl-].[Na+]", "note": "[NaCl]", "aw value": 0.753},
      {"molecule": "O=[N+]([O-])[O-].O=[N+]([O-])[O-].[Mg+2]", "note": "[Mg(NO3)2]", "aw value": 0.529},
      {"molecule": "[Cl-].[Cl-].[Sr+2]", "note": "[SrCl2]", "aw value": 0.708},
      {"molecule": "[Cl-].[Li+]", "note": "[LiCl]", "aw value": 0.112},
      {"molecule": "[Cl-].[Cl-].[Mg+2]", "note": "[MgCl2]", "aw value": 0.327},
      {"molecule": "[Br-].[Na+]", "note": "[NaBr]", "aw value": 0.577},
      {"molecule": "O=C([O-])[O-].[K+].[K+]", "note": "[Sample K2CO3, K2CO3]", "aw value": 0.438},
      {"molecule": "[Cl-].[K+]", "note": "[KCl]", "aw value": 0.843}
    ]}
  ]
}
